Reference: patent publication US4352804A, “Oxime ethers, their preparation and pharmaceutical compositions containing them” (ACF Chemiefarma NV, priority 1978, dated 1982)
Structures can show the parent of a compound that is named as a salt. Where two headings read alike, the source gives them in different places.

Tests used:
[1] = J. Pharm. Sci. 58, 138-141 (1969); cited from earlier work
[2] = tested on: indomethacin induced gastric damage in the rat; assay: Anti-ulcer activity: inhibition of indomethacin induced gastric damage; format: in vivo; conditions: po, 5 h, Table 2, *50 mg/kg orally, 30 min prior to and 2 h after indomethacin 15 mg/kg s.c.
[3] = tested on: Gastric Secretion, in the Pyloric Ligated Rat; assay: Effects on gastric secretion in the pyloric ligated rat (Shay method); format: in vivo; conditions: intraduodenal, Table 1, 100 mg/kg i.d., 3 hours, mean of a number of experiments vs vehicle control
Protocol: 1. Effects on Gastric Secretion, in the Pyloric Ligated Rat.
The method as described by Shay et al. (Gastroenterol. 26, 906 (1945)) was used. After overnight starvation, the pylorus was ligated under halothane anaesthesia, and the compound under test or vehicle only administered intraduodenally and the rats allowed to recover. They were sacrificed three hours later and the gastric juice removed. After measurement of the volume of secretion, its hydrogen ion concentration [H^+ ] was determined by titration with 0.05 n NaOH to pH 7. Groups of 4-6 animals were used for each treatment and the inhibitory effects of the compound were ascertained by comparison of the mean values obtained with those from a simultaneously set up control group of animals which received vehicle only. Students `t` test was applied for significance between groups. The mean values for % inhibition obtained for a number of experiments are shown in the following Table 1, the dosage being 100 mg/kg i.d.

[4] = tested on: indomethacin induced gastric damage in the rat; assay: Anti-ulcer activity: inhibition of indomethacin induced gastric damage; format: in vivo; conditions: po, 5 h, Table 2, 100 mg/kg orally, 30 min prior to and 2 h after indomethacin 15 mg/kg s.c.
Protocol: This was assessed by the inhibition of indomethacin induced gastric damage in the rat according to the method of Elegbe (Israeli J. Med. Sci. 10, 1451 (1974)).
Rats were starved overnight, given indomethacin subcutaneously (15 mg/kg) and sacrificed 5 hours later. Stomachs were inflated with 0.9% saline, cut along the greater curvature, pinned out and scored for gastric damage by the following system:
Score 1-3 according to the degree of erythema and slight haemorrhage.
Score 4-6 according to the degree of mucosal erosion.
Score 7-9 according to the depth of gastric damage. Groups of 7 rats were used for each treatment level of the compound under test and a similar group receiving vehicle only was set up on each occasion of testing. Compound or vehicle was administered orally 30 minutes prior to, and at 2 hours after, dosing with indomethacin. Mean values per treatment were obtained using the above scoring system and the Mann Witney test applied for significance between such values. The mean inhibition of gastric damage from a number of experiments is shown in the following Table 2; the dosage being 100 mg/kg orally.

[5] = Farmaco, Ed. Sci. 19, 668-702 (1964); cited from earlier work
[6] = read-out: % Inhibition, Volume (of gastric secretion)
[7] = read-out: % Inhibition, [H^+ ] (hydrogen ion concentration of gastric juice)

Row | Compound | inhibition in vivo at 100 mg/kg [3, 6] [%] | inhibition in vivo at 100 mg/kg [3, 7] [%] | inhibition in vivo at 100 mg/kg [4] [%] | other results
1 | COc1ccc(C(=NOCCN(C)C)c2cccs2)cc1 [4-methoxyphenyl 2-thienyl ketone, O-dimethylaminoethyl oxime] | – | – | – | effective dose versus toxic dose [1]: the effective dose was very close to the toxic dose
2 | CO/N=C(/c1ccccc1)c1cnccn1 [Compound 1, Phenyl pyrazinyl ketone, O-methyl oxime] | 77 | 23 | – | inhibition in vivo at 50 mg/kg [2]: 74%
3 | CO/N=C(/c1ccc(Cl)cc1)c1cnccn1 [Compound 2, 4-chlorophenyl pyrazinyl ketone, O-methyl oxime] | 68 | 21 | 68 | –
4 | CO/N=C(/c1ccc(F)cc1)c1cnccn1 [Compound 7, 4-fluorophenyl pyrazinyl ketone, O-methyl oxime] | 72 | – | 96 | –
5 | CO/N=C(\c1ccc(F)cc1)c1cnccn1 [Compound 8, 4-fluorophenyl pyrazinyl ketone, O-methyl oxime] | 72 | – | 96 | –
6 | CON=C(c1ccccc1)c1c(C)cc2ccccn12 [Compound 9, 2-methyl-3-indolizinyl phenyl ketone, O-methyl oxime] | 83 | 52 | – | –
7 | CO/N=C(\c1ccccc1)c1cn2ccccc2n1 [Compound 10, 2-imidazo[1,2-a]pyridinyl phenyl ketone, O-methyl oxime] | 66 | 23 | – | inhibition in vivo at 50 mg/kg [2]: 89%
8 | CO/N=C(/c1ccccc1)c1cn2ccccc2n1 [Compound 11, 2-imidazo[1,2-a]pyridinyl phenyl ketone, O-methyl oxime] | 77 | – | – | inhibition in vivo at 50 mg/kg [2]: 67%
9 | CO/N=C(\c1ccccc1)c1cnc2ccccn12 [Compound 12, 3-imidazo[1,2-a]pyridinyl phenyl ketone, O-methyl oxime] | 55 | 25 | 61 | –
10 | CON=C(c1ccccc1)c1c(C)nc2ccccn12 [Compound 14, 2-methyl-3-imidazo[1,2-a]pyridinyl phenyl ketone, O-methyl oxime.HCl] | 59 | 23 | 78 | –
11 | CO/N=C(\c1ccccc1)c1ncc[nH]1 [Compound 17, 2-imidazolyl phenyl ketone, O-methyl oxime] | 55 | 26 | 100 | –
12 | CO/N=C(/c1ccccc1)c1ncc[nH]1 [Compound 18, 2-imidazolyl phenyl ketone, O-methyl oxime] | 87 | – | 91 | –
13 | CON=C(c1ccccc1)c1nccn1C [Compound 19, 1-methyl-2-imidazolyl phenyl ketone, O-methyl oxime] | 69 | 49 | 91 | –
14 | CON=C(c1ccccc1)c1nc2ccccc2[nH]1 [Compound 20, 2-benzimidazolyl phenyl ketone, O-methyl oxime] | – | – | 78 | –
15 | CO/N=C(\c1ccccc1)c1nccs1 [Compound 21, phenyl 2-thiazolyl ketone, O-methyl oxime] | 57 | – | 89 | –
16 | CO/N=C(/c1ccccc1)c1nccs1 [Compound 22, phenyl 2-thiazolyl ketone, O-methyl oxime.HBr] | 68 | – | 78 | –

Row | Compound | inhibition in vivo at 100 mg/kg [3, 6] [%] | inhibition in vivo at 100 mg/kg [3, 7] [%] | inhibition in vivo at 100 mg/kg [4] [%] | other results
17 | CON=C(c1cnccn1)c1ccco1 [Compound 23, 2-furanyl pyrazinyl ketone, O-methyl oxime] | 67 | – | 98 | –
18 | N#CCON=C(c1ccccc1)c1cnccn1 [Compound 24, Phenyl pyrazinyl ketone, O-cyanomethyl oxime] | – | – | 93 | –
19 | C=CCON=C(c1ccccc1)c1cnccn1 [Compound 25, phenyl pyrazinyl ketone, O-allyl oxime] | 87 | 27 | 56 | –
20 | C#CCON=C(c1ccccc1)c1cnccn1 [Compound 26, phenyl pyrazinyl ketone, O-propargyl oxime] | – | – | 53 | –
21 | CN(C)CCCON=C(c1ccccc1)c1cnccn1 [Compound 27, phenyl pyrazinyl ketone, O-3-N,N-dimethylaminopropyl oxime.1 maleic acid] | 67 | 49 | 92 | –
22 | CN(C)CCON=C(c1ccccc1)c1cnccn1 [Compound 28, phenyl pyrazinyl ketone, O-2,N,N-dimethylaminoethyl oxime.1 maleic acid] | 56 | 59 | – | –
23 | CN(C)CCCON=C(c1ccccc1)c1cnc2ccccn12 [Compound 29, 3-imidazo[1,2-a]pyridinyl phenyl ketone, O-3-N,N-dimethylaminopropyl oxime.1/2 fumaric acid] | – | – | 75 | –
24 | CN(C)CCCON=C(c1ccccc1)c1ccc2ccccc2n1 [Compound 30, phenyl 2-quinolinyl ketone, O-3-N,N-dimethylaminopropyl oxime.1 fumaric acid] | 72 | 37 | 79 | –
25 | CN(C)CCCON=C(c1ccccc1)c1ncc[nH]1 [Compound 31, 2-imidazolyl phenyl ketone, O-3-N,N-dimethylaminopropyl oxime] | 80 | 72 | 56 | –
26 | CN(C)CCCON=C(c1ccccc1)c1nccn1C [Compound 32, 1-methyl-2-imidazolyl phenyl ketone, O-3-N,N-dimethylaminopropyl oxime] | 83 | 41 | – | –
27 | CN(C)CCCON=C(c1ccccc1)c1nc2ccccc2s1 [Compound 33, 2-benzothiazolyl phenyl ketone, O-3-N,N-dimethylaminopropyl oxime.1 fumaric acid] | 55 | 38 | 62 | –
28 | CN(C)CCCO/N=C(\c1ccccc1)c1nccs1 [Compound 34, phenyl 2-thiazolyl ketone, O-3-N,N-dimethylaminopropyl oxime.1 fumaric acid] | 82 | 42 | – | –
29 | CN(C)CCON=C(Cc1ccccn1)c1ccccc1 [phenyl 2-picolinyl ketone, O-dimethylaminoethyl oxime] | – | – | – | anti-androgenic activity [1]: showed anti-androgenic activity; effective dose versus toxic dose [1]: the effective dose was very close to the toxic dose
30 | C[N+](C)(C)CCON=C(c1ccccc1)c1ccccn1 [phenyl 2-pyridinyl ketone, O-dimethylaminoethyl oxime methiodide] | – | – | – | acetylcholine antagonistic activity [5]: showed acetylcholine antagonistic activity
31 | phenyl 2-pyridinyl ketone, O-di(m)ethylaminoethyl oxime | – | – | – | anti-androgenic activity [1]: showed anti-androgenic activity; effective dose versus toxic dose [1]: the effective dose was very close to the toxic dose
